Type in all cases: functional
One test concerns Xanthomonas campestris. Nature of the test: Antibacterial activity against Xanthomonas campestris.
In the next test the test system is Xanthomonas oryzae. Put plainly: Antibacterial activity against Xanthomonas oryzae.
Test [1] deals with Staphylococcus aureus. Nature of the test: Antibacterial activity against methicillin-resistant Staphylococcus aureus ATCC 43300 assessed as reduction in bacterial growth measured for 12 hrs by CLSI protocol based broth microdilution method. In general terms: Broth dilution looks for growth in wells or tubes with falling amounts of substance.
The subject of test [2] is Staphylococcus aureus. Nature of the test: Antibacterial activity against methicillin-resistant Staphylococcus aureus.
The test system of another test is Escherichia coli. Nature of the test: Antibacterial activity against Escherichia coli.
For test [3], the system named is Staphylococcus aureus. Put plainly: Antibacterial activity against Staphylococcus aureus.
Another test relates to Bacillus cereus. Nature of the test: Antibacterial activity against Bacillus cereus.
For the next test, the system named is Bacillus subtilis. Put plainly: Antibacterial activity against Bacillus subtilis.
Test [4] relates to Staphylococcus aureus. Put plainly: Antibacterial activity against Staphylococcus aureus ATCC 33591.
A further test has as its system Enterococcus faecalis. Put plainly: Antibacterial activity against Vancomycin-resistant Enterococcus faecalis ATCC 51299.
The subject of test [5] is Staphylococcus epidermidis. Nature of the test: Antimicrobial activity against Staphylococcus epidermidis ATCC 12228 assessed as reduction in microbial growth incubated for 16 hrs by CLSI protocol based Mueller-Hinton broth micro-dilution method.
Test [6] has as its system Staphylococcus aureus. Nature of the test: Antimicrobial activity against Staphylococcus aureus ATCC 29213 assessed as reduction in microbial growth incubated for 16 hrs by CLSI protocol based Mueller-Hinton broth micro-dilution method.

Converted amounts (≈) assume the structure as drawn.

Usually MIC stands for the smallest concentration in the dilution series that meets the test's criterion for growth inhibition. In the case of `CO[C@H]1/C=C\C=C(/C)C(=O)NC2=CC(=O)C(O)=C(C[C@@H](C)C[C@H](OC)[C@H](O)[C@@H](C)/C=C(\C)[C@@H]1OC(N)=O)C2=O`, the MIC with Xanthomonas campestris stood at 0.25 µg/mL (≈ 0.457 µM); in the test on Xanthomonas oryzae it was 0.125 µg/mL (≈ 0.229 µM).

`CO[C@H]1C[C@H](C)Cc2cc(O)cc(c2)NC(=O)/C(C)=C/CC[C@H](OC)[C@@H](OC(N)=O)/C(C)=C/[C@H](C)[C@H]1O`: the values for the minimum inhibitory concentration (MIC) against Xanthomonas campestris and against Xanthomonas oryzae were 2.03 µg/mL (≈ 3.91 µM) and 0.25 µg/mL (≈ 0.482 µM), respectively. For the compound `CC(=O)c1cc(C)c(C)n1CCc1c[nH]c2ccccc12`, the MIC with Staphylococcus aureus [1] came to 25 µg/mL (≈ 89.2 µM). With `CC(C)c1cc(=O)c2c(cc(O)c3c(=O)c4c(O)c(Br)ccc4c(=O)c32)c1=O`, it took 0.098 µg/mL to inhibit growth against Staphylococcus aureus [2] (MIC). Regarding `CC[C@@H]1NC(=O)[C@@H](CC(C)C)NC(=O)C(NC(=O)[C@@H](CC(=O)C(CC(=O)C(CC(O)c2ccccc2)NC(=O)[C@@H](CCCN)NC(=O)CCNC(=O)/C=C\C=C\C(C)C)C(O)CC(=O)O)Cc2ccc(O[C@@H]3OC[C@H](O)[C@H](O)[C@H]3O)cc2)C(C)NC(=O)[C@@H]2CCCN2C(=O)[C@H](C)NC(=O)[C@H](CC(=O)c2ccc(Cl)cc2N)NC(=O)CNC(=O)[C@H](CO)NC(=O)CNC1=O` (some centres undefined), the MIC against Escherichia coli was > 64 µg/mL; against Staphylococcus aureus [3] it was 0.5 µg/mL (≈ 0.275 µM).

`CC1=C(CC2=C(O)C(=O)c3cc(O)c(C)c(O)c3C2=O)CCC(C)(C)C1` yielded an MIC with Bacillus cereus of 6.25 µg/mL (≈ 17.5 µM). As to `CCc1c(Cc2ccccc2)oc(=O)c(CC)c1O`, the MIC was > 50 µg/mL in the test on Bacillus subtilis and 12.5 µg/mL in the test on Staphylococcus aureus [2].

Turning to `COc1cc2oc3c(O)c4c(c(O)c3c(=O)c2cc1O)-c1c(cc2cc(C)n(CCO)c(=O)c2c1O)CC4`, the MIC in the test on Staphylococcus aureus [4] and in the test on Enterococcus faecalis was 0.25 µg/mL (≈ 0.483 µM) throughout. Turning to `C=CC(C)(C)ON(CCCCCCC(O)CCCCCc1nc(CCCNC(=N)NCC=C(C)C)c(OC)nc1CCCNC(=N)NCC=C(C)C)C(=N)N` (centres undefined), the MIC against Escherichia coli and in the test with Staphylococcus aureus [2] was 1 µg/mL in each case.

Turning to `COC(=O)c1csc(-c2nc3c(-c4ccc(OC)cc4)c(OC)c(O)c(-c4ccc(OC)cc4)c3s2)n1`, the figures for the MIC in the test with Bacillus subtilis, against Escherichia coli and against Staphylococcus aureus [2] were 0.8 µg/mL (≈ 1.5 µM), 0.8 µM and > 50 µg/mL, respectively. In the case of `COC(=O)[C@]1(O)C[C@@H](C)C[C@H](OC)[C@H](O)[C@@H](C)C/C=C(/C)[C@H](OC(N)=O)[C@@H](OC)/C=C\C=C(/C)C(=O)NC2=CC(=O)O[C@]21O`, the MIC in the test on Xanthomonas campestris amounted to 16.2 µg/mL (≈ 26 µM); with Xanthomonas oryzae it was 2.03 µg/mL (≈ 3.25 µM). Consider `COc1cc2oc3c(c(=O)c2cc1O)C(=O)C1=C(CCc2cc4cc(C)n(CCO)c(=O)c4c(O)c21)C3=O`, for which the values for the MIC in the test on Staphylococcus aureus [4] and in the test on Enterococcus faecalis were 0.12 µg/mL (≈ 0.233 µM) and 0.25 µg/mL (≈ 0.485 µM), respectively. For the compound `C/C=C1\NC(=O)[C@@H](CC)NC(=O)CNC(=O)[C@@](C)(C(C)=O)NC(=O)[C@H](Cc2c[nH]c3ccc(O)c(OC)c23)NC(=O)c2csc(n2)[C@@H](C)NC(=O)CNC1=O`, the values for the MIC (in [5]; in the test on Staphylococcus aureus [6]) were 12.5 µM and 200 µg/mL, respectively.

Take `C/C=C1\NC(=O)[C@@H](C)NC(=O)CNC(=O)[C@@](C)(C(C)=O)NC(=O)[C@H](Cc2c[nH]c3cccc(OC)c23)NC(=O)c2csc(n2)[C@@H](C)NC(=O)CNC1=O`: the values for the MIC (in test [5]; with Staphylococcus aureus [6]) were 50 µM and 12.5 µg/mL, respectively. On to `C=CC(C)(C)ON(CCCCCCCCCCCC(O)c1nc(CCCNC(=N)N)c(OC)nc1CCCNC(=N)N)C(=N)N` (centres undefined), for which the values for the MIC against Escherichia coli and against Staphylococcus aureus [2] were 1.5 µg/mL and 0.8 µg/mL, respectively. Consider `CC[C@@H]1NC(=O)[C@@H](CC(C)C)NC(=O)C(NC(=O)[C@@H](CC(=O)C(CC(=O)C(CC(O)c2ccccc2)NC(=O)[C@@H](CCCNC(=O)CCN)NC(=O)CCNC(=O)/C=C\C=C\C(C)C)C(O)CC(=O)O)Cc2ccc(O[C@@H]3OC[C@H](O)[C@H](O)[C@H]3O)cc2)C(C)NC(=O)[C@@H]2CCCN2C(=O)[C@H](C)NC(=O)[C@H](CC(=O)c2ccc(Cl)cc2N)NC(=O)CNC(=O)[C@H](CO)NC(=O)CNC1=O` (some centres undefined), for which the minimal inhibitory concentration (MIC) is > 64 µg/mL with Escherichia coli and 1 µg/mL (≈ 0.53 µM) against Staphylococcus aureus [3]. Consider `CC(=O)NC(CSc1c(C(C)C)c(=O)c2cc(O)c3c(=O)c4c(O)cccc4c(=O)c3c2c1=O)C(=O)O` (centres undefined), for which it took 0.195 µg/mL to inhibit growth against Staphylococcus aureus [2] (MIC). As to `CC[C@H]1NC(=O)CNC(=O)[C@@](C)(C(C)=O)NC(=O)[C@H](Cc2c[nH]c3cccc(OC)c23)NC(=O)c2csc(n2)[C@@H](C)NC(=O)CNC(=O)/C(=C/CO)NC1=O`, the figures for the MIC (in test [5]; in the test on Staphylococcus aureus [6]) were 1.6 µM and 25 µg/mL, respectively. For the compound `COC(=O)CCSC1=C(c2ccc(OC)cc2)C(O)C(OC)=C(c2ccc(OC)cc2)C1=O` (centres undefined), the MIC against Staphylococcus aureus [2] was determined as 12.5 µM.

Consider `COc1cc2oc3c(O)c4c(c(O)c3c(=O)c2cc1O)-c1c(cc2cc(C)[nH]c(=O)c2c1O)CC4`, for which the MIC in the test with Staphylococcus aureus [4] and in the test with Enterococcus faecalis was 0.03 µg/mL (≈ 0.0634 µM) each time. In the case of `C/C=C1\NC(=O)[C@@H](CC)NC(=O)CNC(=O)[C@@](C)(C(C)=O)NC(=O)[C@H](Cc2c[nH]c3cccc(OC)c23)NC(=O)c2csc(n2)[C@@H](C)NC(=O)CNC1=O`, the MIC in test [5] was determined as 1.6 µM; in the test with Staphylococcus aureus [6], 3.1 µg/mL. On to `C=CC(C)(C)ON(CCCCCCC(O)CCCCC(O)c1nc(CCCNC(=N)NCC=C(C)C)c(OC)nc1C(O)CCNC(=N)NCC=C(C)C)C(=N)N` (centres undefined), for which the MIC with Escherichia coli and in the test with Staphylococcus aureus [2] was 2 µg/mL throughout.

As for `COC(=O)/C(C)=C/CC[C@H](OC)[C@@H](OC(N)=O)/C(C)=C/[C@H](C)[C@@H](O)[C@H](C[C@H](C)CC1=C(OC)C(=O)C2=C(NC(=O)[C@@H](C)S2)C1=O)OC`, the MIC in the test on Bacillus subtilis and in the test with Staphylococcus aureus [3] was 64 µg/mL (≈ 94 µM) throughout. `COC(=O)[C@@]1(O)C[C@@H](C)C[C@H](OC)[C@H](O)[C@@H](C)C/C=C(/C)[C@H](OC(N)=O)[C@@H](OC)/C=C\C=C(/C)C(=O)NC2=CC(=O)O[C@]21O`: the minimum inhibitory concentration (MIC) came to 8.12 µg/mL (≈ 13 µM) in the test on Xanthomonas campestris and 4.06 µg/mL (≈ 6.5 µM) against Xanthomonas oryzae.

For the compound `COc1cc2oc3c(c(=O)c2cc1O)C(=O)C1=C(CCc2cc4cc(C)[nH]c(=O)c4c(O)c21)C3=O`, the MIC in the test on Staphylococcus aureus [4] was found to be 0.12 µg/mL (≈ 0.255 µM); in the test on Enterococcus faecalis it was 0.25 µg/mL (≈ 0.53 µM). Take `C=CC(C)(C)ON(CCCCCCC(O)CCCCC(O)c1nc(CCCNC(=N)NCC=C(C)C)c(OC)nc1CCCNC(=N)NCC=C(C)C)C(=N)N` (centres undefined): the values for the MIC in the test with Escherichia coli and against Staphylococcus aureus [2] were 4 µg/mL and 3 µg/mL, respectively. For `O=C1c2ccc3cc([C@@H](O)CO)cc(O)c3c2C(=O)c2cccc(O)c21`, the MIC against Bacillus subtilis stood at 0.78 µg/mL (≈ 2.23 µM); in the test on Escherichia coli, 1.56 µg/mL; in the test with Staphylococcus aureus [2] it was 0.39 µg/mL. Consider `COC1=C(CC2=C(C)CC(C)(C)CC2)C(=O)c2c(cc(O)c(C)c2O)C1=O`, for which the lowest concentration to inhibit growth against Bacillus cereus (MIC) was 50 µg/mL (≈ 135 µM). On to `CSc1c(C(C)C)c(=O)c2cc(O)c3c(=O)c4c(O)cccc4c(=O)c3c2c1=O`, for which, in the test with Staphylococcus aureus [2], the MIC worked out at 3.12 µg/mL. `C=CC(C)(C)ON(CCCCCCCCCCCC(O)c1nc(CCCNC(=N)NCC=C(C)C)c(OC)nc1C(O)CCNC(=N)NCC=C(C)C)C(=N)N` (centres undefined): the MIC in the test with Escherichia coli and against Staphylococcus aureus [2] was 0.5 µg/mL in each case. As to `C=CC(C)(C)ON(CCCCCCCCCCCCc1nc(CCCNC(=N)N)c(OC)nc1CCCNC(=N)N)C(=N)N`, the minimal inhibitory concentration (MIC) in the test with Escherichia coli and with Staphylococcus aureus [2] was 1 µg/mL throughout.

Regarding `Cc1c(O)cc2c(c1O)C(=O)C(C[C@@]13CCC(C)(C)C[C@]1(C)O3)=C(Cl)C2=O`, the MIC was found to be 25 µg/mL (≈ 64 µM) in the test on Staphylococcus aureus [3] and 12.5 µg/mL (≈ 32 µM) in the test on Bacillus cereus.

Take `C[C@H]1[C@H](NC(=O)/C(=N\OC(C)(C)C(=O)O)c2csc(N)n2)C(=O)N1S(=O)(=O)O` [AZTREONAM]: the MIC against Escherichia coli and against Staphylococcus aureus [2] was 0.25 µg/mL in each case. In the test on Staphylococcus aureus [2], `O=C(N[C@H](CO)[C@H](O)c1ccc([N+](=O)[O-])cc1)C(Cl)Cl` [CHLORAMPHENICOL] displayed an MIC of 3.12 µg/mL. On to `COc1c(O)cc2cc1C[C@@H](C)C[C@H](OC)[C@H](O)[C@@H](C)/C=C(\C)[C@H](OC(N)=O)[C@@H](OC)CC/C=C(\C)C(=O)N2` [REBLASTATIN], for which the figures for the MIC in the test with Xanthomonas campestris and in the test with Xanthomonas oryzae were 0.125 µg/mL (≈ 0.228 µM) and 4.06 µg/mL (≈ 7.4 µM), respectively.

(Values after ChEMBL document CHEMBL6182843, “Actinomycetes: Treasure trove for discovering novel antibiotic candidates” (2025).)
